Assays:
HDAC6 = molecular target: T1, HDAC6 (Homo sapiens, UniProt Q9UBN7); assay: Homogeneous ZMAL-based fluorescence assay for HDAC6; type: biochemical
T1 sequence (Q9UBN7 1-1215): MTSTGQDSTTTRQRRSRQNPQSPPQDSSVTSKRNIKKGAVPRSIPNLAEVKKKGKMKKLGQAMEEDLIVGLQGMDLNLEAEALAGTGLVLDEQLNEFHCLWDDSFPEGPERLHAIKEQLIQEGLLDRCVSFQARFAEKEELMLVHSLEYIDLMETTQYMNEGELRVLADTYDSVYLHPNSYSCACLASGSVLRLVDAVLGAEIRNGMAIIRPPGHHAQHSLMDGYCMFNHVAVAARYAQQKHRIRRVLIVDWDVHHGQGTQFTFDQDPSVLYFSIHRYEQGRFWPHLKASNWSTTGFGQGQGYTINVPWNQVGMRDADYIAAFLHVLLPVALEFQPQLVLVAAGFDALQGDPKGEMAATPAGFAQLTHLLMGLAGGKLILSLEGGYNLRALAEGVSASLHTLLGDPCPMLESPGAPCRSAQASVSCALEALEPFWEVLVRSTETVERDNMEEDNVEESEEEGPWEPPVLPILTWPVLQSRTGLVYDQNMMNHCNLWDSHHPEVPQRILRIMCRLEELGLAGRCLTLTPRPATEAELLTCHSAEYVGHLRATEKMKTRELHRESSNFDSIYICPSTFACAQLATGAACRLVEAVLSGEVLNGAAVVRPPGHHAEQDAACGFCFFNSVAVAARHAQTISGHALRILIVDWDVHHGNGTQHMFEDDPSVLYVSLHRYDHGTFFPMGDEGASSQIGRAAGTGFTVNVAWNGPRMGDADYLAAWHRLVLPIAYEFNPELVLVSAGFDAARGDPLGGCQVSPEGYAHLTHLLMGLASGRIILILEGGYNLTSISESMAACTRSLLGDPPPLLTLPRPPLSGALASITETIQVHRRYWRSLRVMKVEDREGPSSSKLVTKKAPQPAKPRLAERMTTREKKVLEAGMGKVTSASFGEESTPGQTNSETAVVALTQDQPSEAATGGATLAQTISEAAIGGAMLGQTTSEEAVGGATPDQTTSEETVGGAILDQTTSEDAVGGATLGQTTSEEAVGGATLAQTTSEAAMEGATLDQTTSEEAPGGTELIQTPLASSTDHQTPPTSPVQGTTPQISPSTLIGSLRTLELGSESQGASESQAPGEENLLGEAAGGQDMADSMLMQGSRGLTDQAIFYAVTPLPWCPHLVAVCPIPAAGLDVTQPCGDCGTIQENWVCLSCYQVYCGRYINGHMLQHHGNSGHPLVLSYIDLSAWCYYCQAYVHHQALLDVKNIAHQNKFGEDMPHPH
Protocol: The inhibition of HDAC1 and 6 by the S1th and PR-619 was determined via the ZMAL-assay according to the same general procedure described for sirtuins (2.2.1). 5 μL substrate (10.5 μM final assay concentration) were mixed with 3 μL of inhibitor in DMSO or DMSO and 10 μL of HDAC solution (concentration adjusted to 15–30% conversion) and filled up to 60 μL with assay buffer (50 mM Tris, 137 mM NaCl, 1 mM MgCl2, 2,7 mM KCl, 1 mg/ml BSA, pH = 8.0). The mixture was incubated at 37°C and 140 rpm for 1.5 h. For the stop solution Trichostatin A (3.3 μM) was used instead of nicotinamide. Fluorescence intensity was measured as described above. An enzyme free blank control and an AMC containing 100% control were performed as well and inhibition was calculated in % in relation to a DMSO control.

[1] = system: γH2AX/H2AX levels in MEF cells; assay: γH2AX level determination by western blot; type: cell-based, mouse; conditions: 48 h, EX-527 10 μM, S1th 10 30 μM, S1th 12 20 μM, S1th 13 12 μM, SirReal2 30 μM
Protocol: Sirt1 WT and KO MEFS cells were treated with 10 μM EX-527, 12 μM S1th 13 (6), 20 μM S1th 12 (5), 30 μM S1th 10 (7) and 30 μM SirReal2 [Sirt2 inhibitor, synthesized according to ([62])] for 48 h. Oxidative stress was induced using 10 μM Camptothecin 2 h. Whole-cell extracts were performed according to the Dignam protocol ([63]). Primary antibodies used for the western blot were anti-H2AX and anti-γH2AX (ab11175 and ab2893 resp., Abcam, UK). Densiometric analysis of the western blots was performed with Quantity One software (Bio-Rad Laboratories, Inc., USA).

[2] = system: H3K9ac and p53K382ac in HeLa cells; assay: Analysis of acetylation status in HeLa cells by western blotting; type: cell-based, human; conditions: 48 h; concentrations as in proliferation assay
Protocol: 5 × 10^4 cells were plated in 6-well plates and grown with the conditions and drug concentrations as described for the proliferation assay. Cells were harvested at 48 h and resuspendend in protein loading buffer. After sonication the samples were centrifuged at 14,000 rpm in an Eppendorf microcentrifuge (Eppendorf, DE) and the supernatants were analyzed by western-blot. The following antibodies were used: histone H3 (Cell Signaling #9715), histone H3K9ac (Cell Signaling # C5B11), GAPDH (Cell Signaling #D16H11), p53 (ThermoFisher #PA527822), and p53K382ac (Abcam 75754). Quantification was carried out using imageJ.

HeLa cells = assay: Wound healing assay with HeLa cells; type: cell-based, human; conditions: 24 h; S1th 13 12 μM
Protocol: For wound healing assay 6 × 10^5 cells per well were seeded in 6-well plates and grown for 24 h in DMEM containing 10% FBS. After 24 h, a lineal gap between cells was created in the middle of the plate by scratching the cell monolayer with a 1 mL pipette tip in the same position in each well. Once the scratching is done, plates were washed twice with PBS and then grown in DMEM containing 1% FBS and the drugs in the same concentrations as for the proliferation assay. As described previously, the growth media 1% FBS containing the drugs was replaced every 48 h. Images were acquired in an Optimal microscope (Leica microscopes, DE) using Leica Application Suite X (LAS X) every 24 h (0, 24, 48, and 72 h) until the gap closed. The quantification of the area of the gap at the indicated times was performed with Image J-MRI Wound Healing Tool. The experiment was performed only once.

inhibition at 100 µM (HDAC6)	% inhibition @ 100 μM HDAC6 (HDAC6)	Structure (SMILES)	residual activity HDAC6 (HDAC6)	γH2AX/H2AX levels without Camptothecin [1]	H3K9 acetylation in HeLa cells [2]	p53K382 acetylation in HeLa cells [2]	lower reduction of total wound area compared to control without drug (HeLa cells)
19%	29%	N#CSc1cccc(NC(=O)[C@H]2CC=CC[C@H]2C(=O)O)c1 [S1th 10]	–	decreased	clear effect on acetylation	clear effect on acetylation	–
< 10%	–	CCCCNC(=O)Nc1cccc(SC#N)c1 [S1th 11]	–	–	–	–	–
36%	–	COc1ccc(SC#N)cc1OCC(=O)N(CCC#N)CCC#N [S1th 12]	–	decreased	clear effect on acetylation	clear effect on acetylation	–
29%	19%	N#CSc1cccc(NS(=O)(=O)c2ccc3c(c2)OCCO3)c1 [S1th 13]	–	decreased	clear effect on acetylation	clear effect on acetylation	~ 50%

Structure (SMILES)	inhibition at 100 µM (HDAC6)	% inhibition @ 100 μM HDAC6 (HDAC6)	residual activity HDAC6 (HDAC6)	γH2AX/H2AX levels without Camptothecin [1]	H3K9 acetylation in HeLa cells [2]	p53K382 acetylation in HeLa cells [2]	lower reduction of total wound area compared to control without drug (HeLa cells)
N#CSc1cc(SC#N)c(N)nc1N [PR-619, reference compound]	49%	–	~ 50%	–	–	–	–

Reference: PMC7203344, “Sirtuin 1 Inhibiting Thiocyanates (S1th)—A New Class of Isotype Selective Inhibitors of NAD^+ Dependent Lysine Deacetylases” (Frontiers in Oncology, 2020)
